# Patent US5948780A, “Method for treating and preventing heart failure and ventricular dilatation” (priority 1997, dated 1999)
# Like-named read-outs stand apart in the source and are kept apart here.
# What was measured:
# [1] = system: MMPs; experiment: MMP inhibition at trough plasma level in pigs; settings: 20 mg/kg/day oral
# [2] = system: pacing-induced heart failure model; experiment: pacing-induced heart failure in pigs, first study (echocardiography); assay type: in vivo, pig
# Method: A study was performed in four pigs in which atrial pacemakers were implanted. Heart failure was induced by chronic rapid pacing (i.e., increasing heart rate to 240 beats per minute). Echocardiographic assessment of cardiac function, chamber dimensions, and structure was performed prior to the initiation of pacing, and following 1 and 3 weeks of rapid pacing. Previous studies have shown that 1 week of rapid atrial pacing represents an early timepoint in the development of heart failure in which cardiac dilation is evident, but there is no significant effect on left ventricular (LV) systolic function. Two pigs were dosed with the MMP-inhibitor 2-(4'-bromobiphenyl-4-sulfonylamino)-3-methylbutyric acid (Compound A) (20 mg/kg/day) which was given once a day orally. This dosage was selected based upon pharmacokinetic data in which this dosage regimen would provide minimal steady state plasma levels of 10 μM Compound A. One pig dosed with Compound A was sacrificed at the end of 1 week of pacing, and the second pig was paced for a full 3 weeks. At the end of 3 weeks, pigs were euthanized and the heart removed. Cardiac myocytes were isolated from a portion of the left ventricle to measure changes in cell length.
# (§1) MMP-Inhibitor efficacy in treating heart failure was defined as stopping cardiac dilation, preserving cardiac function, and reducing cardiac myocyte lengthening. Cardiac dilation was assessed by measuring changes in the end-diastolic dimension between the left ventricular free wall and left ventricular septum. Cardiac function was also measured using m-mode echocardiography by calculating the percent fraction shortening, or in other words, how well the left ventricle of the heart pumped blood into the circulation. Cellular remodelling was measured by isolating cardiac myocytes using a standard collagenase digestion procedure and measuring cell length using digital photomicroscopy. To confirm plasma drug levels of the MMP-inhibitor, plasma was collected prior to dosing on each day of the pacing protocol.
# [3] = system: cardiac myocytes; experiment: cardiac myocyte length after pacing, first study; assay type: in vivo, pig
# Method: A study was performed in four pigs in which atrial pacemakers were implanted. Heart failure was induced by chronic rapid pacing (i.e., increasing heart rate to 240 beats per minute). Echocardiographic assessment of cardiac function, chamber dimensions, and structure was performed prior to the initiation of pacing, and following 1 and 3 weeks of rapid pacing. Previous studies have shown that 1 week of rapid atrial pacing represents an early timepoint in the development of heart failure in which cardiac dilation is evident, but there is no significant effect on left ventricular (LV) systolic function. […]
# as §1, with “To confirm plasma drug levels of the MMP-inhibitor, plasma was collected prior to dosing on each day of the pacing protocol.” left out
# [4] = in vivo; parameters: species or system Yorkshire pigs; settings: pig, po, 10 mg/kg
# Method: In a similar study, three Yorkshire pigs (22-25 kg, male, Hambone Farms, S.C.) were chronically instrumented in order to measure arterial blood pressure in the conscious state. The pigs were anesthetized with isoflurane (3%/1.5 L/min) and a mixture of nitrous oxide and oxygen (50:50), intubated with a cuffed endotracheal tube and ventilated at a flow rate of 22 mL/kg/minute, and a respiratory rate of 15/minute. A left thoracotomy was performed, and the thoracic aorta at the location of the hemi-azygous crossover exposed. A catheter connected to a vascular process port (Model GPV, 9F, Access Technologies, Skokie, Ill.) was placed in the aorta and sutured in place. The access port was buried in a subcutaneous pocket over the thoracolumbar fascia. Following a recovery period of 7 to 10 days, the animal was returned to the laboratory for baseline studies. […] The vascular access port was entered using a 12-gauge Huber needle (Access Technologies, Skokie, Ill.) and basal, resting arterial pressure and heart rate were recorded. […]
# The MMP inhibitor chosen for these studies was Compound A as above. […] Plasma levels of the MMP inhibitor were determined by the degree of hydrolysis of the MMP substrate thiopeptolide Ac-Pro-Leu-Gly-thioester-Leu-Leu-Gly=OEt. […]
# [5] = system: catalytic domain of stromelysin; experiment: plasma MMP inhibitory activity (thiopeptolide hydrolysis), stromelysin; assay type: biochemical; settings: plasma after 10 mg/kg oral administration
# Method: The MMP inhibitor chosen for these studies was Compound A as above. A single oral dose of 10 mg/kg of Compound A was administered in one pig, and a second pig was simultaneously administered a single 10 mg/kg dose of the MMP inhibitor intravenously. Plasma samples were serially collected from the chronically placed arterial access ports. Plasma levels of the MMP inhibitor were determined by the degree of hydrolysis of the MMP substrate thiopeptolide Ac-Pro-Leu-Gly-thioester-Leu-Leu-Gly=OEt. […] A pharmacokinetic profile was constructed using these initial data, and it was predicted that an oral delivery of 20 mg/kg/day of Compound A would provide significant MMP plasma inhibitory activity at trough levels. Accordingly, the 3 pigs underwent 20 mg/kg QD-AM of treatment with Compound A for 5 days. In order to confirm adequate MMP inhibitory activity, plasma was collected prior to the AM dose with each day of treatment. […] Thus, a practical dosing regiment of Compound A was established which provided stable plasma MMP inhibitory activity in the animal model to be used in the present study.
# [6] = plasma levels of Compound A in MI-rat; assay type: in vivo; settings: po, read-out: Plasma Level
# Method: Drugs were administered in chow such that the investigators were blinded to group assignment. A biweekly record of health status, body weight, and food consumption was maintained.
# Dosing began at 2 weeks post-MI and continued for 6 weeks.
# The isoflurane level was then increased to 2%; the Millar was removed from the carotid and replaced with a PE-50 cannula. A 5 mL blood sample was taken using the PE-50 cannula and an ice-cold syringe. Blood was then put into an ice-cold EDTA tube, and centrifuged at 5000 RPM for 10 minutes at 4° C. Plasma was aliquoted, then stored at -80° C. until assays were performed to assess plasma drug levels and other factors.
# [7] = system: MI-rat (coronary artery ligation) heart failure model; experiment: ischemic model of heart failure (MI-rat), Compound A dose-response; assay type: in vivo; parameters: LVV at LVEDP: unit not given here; settings: for LVEDP / LVV at LVEDP / dp/dt MAX: 6 weeks
# [8] = system: isolated LV myocytes; experiment: isolated myocyte contractile function with pacing induced congestive heart failure (Table IV); settings: Rapid Pacing + MMPi, 20 mg/kg QD
# Method: Following completion of the 21-day protocol, a final set of LV function measurements were performed and plasma collected. Following steady-state LV function measurements, 35 cc of blood was drawn from the arterial access port into chilled tubes containing EDTA (1.5 mg/mL). The blood samples were immediately centrifuged (2000 g, 10 min, 4° C.), the plasma decanted into separate tubes, frozen in a dry ice/methanol bath, and stored at -80° C. until the time of assay. The animals were then anesthetized as described in the preceding section, a sternotomy performed, and the heart quickly extirpated and placed in a phosphate buffered ice slush. The great vessels, atria, and right ventricle were carefully trimmed away, and the LV weighed. The region of the LV free wall incorporating the circumflex artery (5×5 cm) was excised and prepared for myocyte isolation. The region of the left ventricular free wall comprising the left anterior descending artery (3×5 cm) was cannulated and prepared for perfusion fixation.
# Myocytes were isolated from the LV free wall as follows. The left circumflex coronary artery was perfused with a collagenase solution (0.5 mg/mL, Worthington, type II; 146 U/mg) for 35 minutes. The tissue was then minced into 2 mm sections and gently agitated. After 15 minutes, the supernatant was removed, filtered, and the cells allowed to settle. The myocyte pellet (5×10^4 cells/mL) was then resuspended in standard cell culture media (M199, Gibco Laboratories, Grand Island, N.Y.). […] Viable myocytes were defined as those cells which retained a rod shape, were calcium tolerant, responded to electrical stimulation, and excluded trypan blue. Isolated myocyte function was examined using a thermostatically controlled chamber (37° C.) containing a volume of 2.5 mL and two stimulating platinum electrodes to image the isolated myocytes on an inverted microscope (Axiovert IM35, Zeiss Inc., Germany). A 20× long working distance Hoffmann Modulation Contrast objective (Modulation Optics Inc., Greenvale, N.Y.) was used to image the myocytes. Myocyte contractions were elicited by field stimulating the tissue chamber at 1 Hz (S11, Grass Instruments, Quincy, Mass.) using current pulses of 5 msec duration and voltages 10% above contraction threshold. Myocyte motion signals were captured and input through an edge detector system (Crescent Electronics, Sandy, Utah). The distance between the left and right myocyte edges was converted into a voltage signal, digitized, and input to a computer (80386; ZBV2526, Zenith Data Systems, St. Joseph, Mich.) for analysis. Parameters computed from the digitized contraction profiles include percent shortening, velocity of shortening, velocity of relengthening, time to peak contraction, and duration of contraction.
# Indices of LV and myocyte function were compared between the three treatment groups using multi-way analysis of variance (ANOVA). For comparisons of LV function with each week of pacing, an ANOVA for repeated measures was used. […] For comparisons of neurohormonal profiles, the Student-Neuman-Kuells test was employed. The categorical scores obtained from the histomorphometric studies were compared between groups using the Chi-Square analysis. All statistical procedures were performed using the BMDP statistical software package (BMDP Statistical Software Inc., Los Angeles, Calif.). […] Values of p<0.05 were considered to be statistically significant.
# [9] = 20 mg/kg/day oral, paced 7 days
# [10] = 20 mg/kg/day oral, paced 21 days
# [11] = Paced + Compound A group, baseline
structure (smiles),measurement,setting,value
"CC(C)C(NS(=O)(=O)c1ccc(-c2ccc(Br)cc2)cc1)C(=O)O (centres unmarked) [Compound A, 2-(4'-bromobiphenyl-4-sulfonylamino)-3-methylbutyric acid]",inhibition of MMPs at trough level,[1],a level great enough to inhibit all MMPs tested
same,End-Diastolic Dimension,[2]; [9],3.6 ± 0.2 cm
same,Fractional Shortening,[2]; [9],33 ± 3%
same,Heart Rate,[2]; [9],120 ± 3 BPM
same,LV Stress,[2]; [9],50 ± 4 g/cm2
same,End-Diastolic Dimension,[2]; [10],4.3 cm
same,Fractional Shortening,[2]; [10],22%
same,decrease in cardiac function (fractional shortening),[2]; 3 weeks of pacing,39%
same,increase in cardiac dilation (left ventricular end-diastolic dimension),[2]; 3 weeks of pacing,26%
same,End-Diastolic Dimension,[2]; [11],3.4 ± 0.2 cm
same,Fractional Shortening,[2]; [11],36 ± 3%
same,Heart Rate,[2]; [11],105 ± 4 BPM
same,LV Stress,[2]; [11],46 ± 3 g/cm2
same,left ventricular end-diastolic volume versus control values,[2]; first week of pacing,remained unchanged from control values
same,left ventricular wall stress versus control values,[2]; first week of pacing,remained unchanged from control values
same,"fractional shortening, change",[2]; following 1 week of pacing,unchanged
same,Cardiac Myocyte Length,[3]; [10],170 μms
same,increase in cardiac myocyte cell length,[3]; 3 weeks of pacing,19%
same,bioavailability at 4 h,[4],~100%
same,reduction in activity against the catalytic domain of stromelysin,[5],~50%
same,concentration at 1008 h,[6]; 0.005 mg/kg/day in chow,2 ± 1 µM
same,concentration at 1008 h,[6]; 0.05 mg/kg/day in chow,16 ± 4 µM
same,concentration at 1008 h,[6]; 0.5 mg/kg/day in chow,55 ± 3 µM
same,concentration at 1008 h,[6]; 5 mg/kg/day in chow,201 ± 7 µM
same,LVEDP,[7]; 0.005 mg/kg/day in chow,20 ± 4 mm Hg
same,LVV at LVEDP,[7]; 0.005 mg/kg/day in chow,650 ± 96
same,dp/dt MAX,[7]; 0.005 mg/kg/day in chow,5900 ± 474 mm Hg/sec
same,LVEDP,[7]; 0.05 mg/kg/day in chow,16 ± 3 mm Hg
same,LVV at LVEDP,[7]; 0.05 mg/kg/day in chow,622 ± 72
same,dp/dt MAX,[7]; 0.05 mg/kg/day in chow,6553 ± 331 mm Hg/sec
same,LVEDP,[7]; 0.5 mg/kg/day in chow,20 ± 3 mm Hg
same,LVV at LVEDP,[7]; 0.5 mg/kg/day in chow,751 ± 65
same,dp/dt MAX,[7]; 0.5 mg/kg/day in chow,5997 ± 351 mm Hg/sec
same,LVEDP,[7]; 5 mg/kg/day in chow,16 ± 3 mm Hg
same,LVV at LVEDP,[7]; 5 mg/kg/day in chow,647 ± 66
same,dp/dt MAX,[7]; 5 mg/kg/day in chow,6357 mm Hg/sec
same,LV function as measured by dP/dt MAX,[7]; 3 highest doses,significantly improved LV function
same,LV dilation,[7]; every dose (0.005-5 mg/kg/day in chow),significantly reduced LV dilation at every dose
same,Percent Shortening,[8]; 7 mM calcium,5.6 ± 0.5%
same,Relengthening Velocity,[8]; 7 mM calcium,78 ± 5 μm/s
same,Resting Length,[8]; 7 mM calcium,156 ± 5 μm
same,Shortening Velocity,[8]; 7 mM calcium,84 ± 7 μm/s
same,Time to 50% Relaxation,[8]; 7 mM calcium,102 ± 5 ms
same,Time to Peak Contraction,[8]; 7 mM calcium,240 ± 3 ms
same,Total Duration,[8]; 7 mM calcium,476 ± 10 ms
same,Percent Shortening,[8]; […] nM isoproterenol,5.1 ± 0.5%
same,Relengthening Velocity,[8]; […] nM isoproterenol,80 ± 11 μm/s
same,Resting Length,[8]; […] nM isoproterenol,161 ± 3 μm
same,Shortening Velocity,[8]; […] nM isoproterenol,108 ± 11 μm/s
same,Time to 50% Relaxation,[8]; […] nM isoproterenol,104 ± 6 ms
same,Time to Peak Contraction,[8]; […] nM isoproterenol,175 ± 2 ms
same,Total Duration,[8]; […] nM isoproterenol,433 ± 12 ms
same,Percent Shortening,[8]; baseline,2.2 ± 0.1%
same,Relengthening Velocity,[8]; baseline,26 ± 2 μm/s
same,Resting Length,[8]; baseline,169 ± 4 μm
same,Shortening Velocity,[8]; baseline,31 ± 2 μm/s
same,Time to 50% Relaxation,[8]; baseline,131 ± 5 ms
same,Time to Peak Contraction,[8]; baseline,244 ± 7 ms
same,Total Duration,[8]; baseline,498 ± 9 ms
